Measurements reported in paper PMC6658616, “Novel Peptide Conjugates of Modified Oligonucleotides for Inhibition of Bacterial RNase P” (Frontiers in Pharmacology, 2019).

Tested on: E. coli RNase P (M1 RNA + C5 protein)
Test: Inhibition of RNase P hydrolysis of fluorescent RNA target by inhibiting oligonucleotides
Type: biochemical, Escherichia coli
Conditions: 5 nM M1 RNA, 50 nM C5 protein, 100 nM fluorescent RNA target, 0-125 nM inhibiting oligonucleotide, 10 mM Tris-HCl pH 7.5, 10 mM MgCl2, 100 mM NH4Cl, 37°C; fluorescence read-out; mean ± SD from two independent experiments

Substance	IC50 [nM]
r-inh: native oligoribonucleotide 5’-r(CAAGCAGCCUACCC), complementary to nucleotides 291–304 in the P15-loop of E. coli M1 RNA (RNA, backbone not given here)	12 ± 4
d-inh: oligodeoxyribonucleotide 5’-d(CAAGCAGCCTACCC) (DNA, backbone not given here)	270 ± 90
